According to patent US20050175567A1, “Hair care compositions containing phenolic styling agents” (priority 2002, published 2005):

Assay: Curl dropout of treated hair curls in high humidity chamber
Settings: 1% by weight solution in water; curls soaked 1 hour, rinsed, dried 30 minutes; 90% RH, 30° C., fan agitation, 1 minute
Procedure: Three solutions were formulated each containing 1% by weight of either 2,5 dihydroxybenzoic acid, 3,4 dihydroxybenzoic acid or 3,5 dihydroxybenzoic acid. Hair curls were made up using perming rods and 30 cm length hair.
The curls were placed in the solution for 1 hour, rinsed thoroughly with distilled water and dried for 30 minutes. The hair was removed from the curling rod and the length of the curl measured.
The hair was hung in high humidity environmental chamber (90% RH, 30° C.) with fan agitation for 1 minute and measured again.

Row | Structure (SMILES) | Curl dropout %
1 | O=C(O)c1cc(O)ccc1O [2,5 dihydroxybenzoic acid] | 17.1%
2 | O=C(O)c1ccc(O)c(O)c1 [3,4 dihydroxybenzoic acid] | 29%
3 | O=C(O)c1cc(O)cc(O)c1 [3,5 dihydroxybenzoic acid] | 26%
